Structures can show the parent of a compound that is named as a salt. Some results are limits rather than exact numbers.

Data on 14 molecules can be found in PMC11818416, “Discovery of TRPV4-Targeting Small Molecules with Anti-Influenza Effects Through Machine Learning and Experimental Validation” (International Journal of Molecular Sciences, 2025).

Data set [1] in a line: CCK-8 cytotoxicity test on MDCK cells. The note with it: dog. On the technique in general: Tetrazolium assays rely on reduction of a dye to a coloured formazan, in cell work by metabolically active cells.
Procedure: (§1) MDCK cells were inoculated in 96-well plates at 37 °C and 5% carbon dioxide for 12 h. The cell supernatant was discarded when the cell density reached 60–70%, and then different concentrations of drugs (0.1, 1, 10, 100 μM) were inoculated in the cell plates, moreover 3 repeat holes were set for each concentration gradient. After 48 h, cell viability was measured using cell counting kit-8 (Beyotime, C0039, CCK-8) depending on factory instructions. The absorbance at 450 nm for each pore was measured using an enzyme-linked immunosorbent plate reader, and half inhibitory concentration (CC50) value of cell viability were calculated by a nonlinear regression curve fitting analysis (Prism 8) of cell viability to the log10 conversion concentration value.
Data set [2] in a line: in vitro. The conditions noted are these: dog.
Procedure: as §1
In data set [3] the test system is H1N1-UI182. The data set can be described thus: Mice infected with lethal H1N1-UI182 virus: body weight, survival, lung index, lung viral titer, pathology, viral proteins. The class given is in vivo, BALB/c mice. The conditions noted are these: for rate of weight loss in virus-infected mice: 15-drug round, monitored 14 days (Figure 4A,B); for viral titers in the lung: Supplementary Figures S1C and S2C, comparable to the positive drugs; for survival rate of infected mice: 15-drug round (Figure 4C,D); for expression levels of viral proteins (NP, HA, M1) in lungs, WB: 15-drug round (Figure 4K,L); for lung injury (pathology): compared to other treatment groups and virus group, glecaprevir 30 mg/kg, everolimus 5 mg/kg (Figures S1, S2); for protection rate (survival of influenza-infected mice): H1N1-UI182 5 × LD50, BALB/c mice; for rate of weight loss at different concentrations / survival at different concentrations / dose dependence of the inhibitory effect on the virus (lung index, pulmonary viral load, pathological injury): oral.

Data set [4] relates to NF-κB signaling pathway and inflammatory cytokines. The data set can be described thus: Inflammatory cytokine expression after H1N1-UI182 infection by WB and RT-qPCR. The conditions noted are these: after H1N1-UI182 infection (Figure 6A-C). The class given is in vivo, mouse. (In qPCR the cycle at which signal appears reflects the starting amount.)
Data set [5] deals with H1N1-UI182 in 293T cells. In kind it is cell-based, human.
In data set [6] the test system is MDCK cells.
Procedure: as §1
Setting [7] is: glecaprevir 10, 20, 40 mg/kg/day, everolimus 1, 5, 25 mg/kg/day.
The mark [8] stands for this setting: glecaprevir 10, 20, 40 mg/kg/day, everolimus 1, 5, 25 mg/kg/day, 5 dpi.

In data set [1] (MDCK cells), `CCCCC(=O)OCC(=O)[C@]1(O)Cc2c(O)c3c(c(O)c2[C@@H](O[C@H]2C[C@H](NC(=O)C(F)(F)F)[C@H](O)[C@H](C)O2)C1)C(=O)c1c(OC)cccc1C3=O` [Valrubicin] had a CC50 at 48 h of less than 50 µM.

For `CSCCNc1nc(SCCC(F)(F)F)nc2c1ncn2[C@@H]1O[C@H](COP(=O)(O)OP(=O)(O)C(Cl)(Cl)P(=O)(O)O)[C@@H](O)[C@H]1O` [Cangrelor], the CC50 at 48 h in data set [2] was greater than 100 µM. In addition, the “rate of weight loss in virus-infected mice” value in data set [3] is “significantly slowed the rate of weight loss”.

Regarding `CC(C)(C)[C@@H]1NC(=O)O[C@@H]2CCC[C@H]2OC/C=C/C(F)(F)c2nc3ccccc3nc2O[C@@H]2C[C@@H](C(=O)N[C@]3(C(=O)NS(=O)(=O)C4(C)CC4)C[C@H]3C(F)F)N(C2)C1=O` [Glecaprevir], the “expression levels of phosphorylated NF-κB, IL-6, IL-10, IFN-β, TNF-α (WB)” value in data set [4] was “decreased”. In data set [2], the CC50 at 48 h stood at 77.3 µM. Further, the “viral titers in the lung” value in data set [3] (5 dpi) is “significantly reduced viral titers”. For the same molecule, in data set [3], the “survival rate of infected mice” value is listed as “significantly improved the survival rate”; the “expression levels of viral proteins (NP, HA, M1) in lungs, WB” value was “attenuated obviously”; the “rate of weight loss in virus-infected mice” value is “significantly slowed the rate of weight loss”; the “protection rate (survival of influenza-infected mice)” value was found to be 80%. In addition, in data set [3] (5 days after infection), the “lung injury (pathology)” value is “noticeable signs of lung improvement”. Also, the “expression of viral protein in mouse lungs at higher doses, WB” value in data set [3] (glecaprevir 10, 20, 40 mg/kg/day (Figure 5K)) is reported as “did not effectively inhibit the expression of viral protein at higher doses”. Moreover, in data set [3] (glecaprevir 10, 20, 40 mg/kg/day, 5 dpi, H&E (Figure 5I)), the “lung lesions at higher concentrations” value is “higher concentrations did not alter the lung lesions”. In data set [3] (setting [7]), the “rate of weight loss at different concentrations” value is “observably retarded the rate of weight loss” and the “survival at different concentrations” value is given as “improved survival in a concentration-dependent manner”. Besides, the “dose dependence of the inhibitory effect on the virus (lung index, pulmonary viral load, pathological injury)” value in data set [3] (setting [8]) is recorded as “did not display concentration-dependent characteristics”.

As for `CNCC(=O)OCc1cccnc1N(C)C(=O)OC(C)[n+]1cnn(C[C@](O)(c2cc(F)ccc2F)[C@@H](C)c2nc(-c3ccc(C#N)cc3)cs2)c1` (stereo partly drawn) [Isavuconazonium], the CC50 at 48 h in data set [1] (MDCK cells) was greater than 100 µM.

The molecule `NC[C@H]1O[C@H](O[C@H]2[C@H](O)[C@@H](O[C@H]3O[C@H](CO)[C@@H](O)[C@H](N)[C@H]3O)[C@H](N)C[C@@H]2N)[C@H](N)C[C@@H]1O` [Tobramycin] yielded a CC50 at 48 h in data set [1] (MDCK cells) greater than 100 µM.

`CCC[C@H](NC(=O)[C@@H]1[C@H]2CCC[C@H]2CN1C(=O)[C@@H](NC(=O)[C@@H](NC(=O)c1cnccn1)C1CCCCC1)C(C)(C)C)C(=O)C(=O)NC1CC1` [Telaprevir] registered a CC50 at 48 h in data set [2] greater than 100 µM.

For `CO[C@H]1C[C@@H]2CC[C@@H](C)[C@@](O)(O2)C(=O)C(=O)N2CCCC[C@H]2C(=O)O[C@H]([C@H](C)C[C@@H]2CC[C@@H](OCCO)[C@H](OC)C2)CC(=O)[C@H](C)/C=C(\C)[C@@H](O)[C@@H](OC)C(=O)[C@H](C)C[C@H](C)/C=C/C=C/C=C/1C` [Everolimus], in data set [5], the “expression level of NP protein in normal 293T cells (WB)” value was “higher in normal cells” and the “expression of NP protein in TRPV4−/− 293T cells (WB)” value was “significantly decreased”. The “expression levels of phosphorylated NF-κB, IL-6, IL-10, IFN-β, TNF-α (WB)” value in data set [4] was “decreased”. The same molecule came in with a CC50 at 48 h in data set [2] of 78.2 µM. Moreover, in data set [3] (5 dpi), the “viral titers in the lung” value is recorded as “significantly reduced viral titers”. In addition, in data set [3], the “survival rate of infected mice” value is “significantly improved the survival rate”; the “expression levels of viral proteins (NP, HA, M1) in lungs, WB” value is given as “attenuated obviously”; the “rate of weight loss in virus-infected mice” value is on record as “significantly slowed the rate of weight loss”; the “protection rate (survival of influenza-infected mice)” value was determined as 100%. Further, in data set [3] (5 days after infection, compared to the viral group (Figure 4G-J)), the “viral load in the lungs” value is “evidently lower”. In addition, the “lung injury (pathology)” value in data set [3] (5 days after infection) is listed as “noticeable signs of lung improvement”. In data set [3] (everolimus 1, 5, 25 mg/kg/day, 5 dpi (Figure 5H)), the “pulmonary viral load at different concentrations” value is listed as “decreased notably with the increase of drug concentration”. Also, in data set [3] (setting [7]), the “rate of weight loss at different concentrations” value is recorded as “observably retarded the rate of weight loss” and the “survival at different concentrations” value is recorded as “improved survival in a concentration-dependent manner”. Besides, the “dose dependence of the inhibitory effect on the virus (lung index, pulmonary viral load, pathological injury)” value in data set [3] (setting [8]) is on record as “meaningfully dose-dependent”.

In data set [1] (MDCK cells), `CC(/C=C/C=C(\C)C(=O)O[C@@H]1O[C@H](CO[C@@H]2O[C@H](CO)[C@@H](O)[C@H](O)[C@H]2O)[C@@H](O)[C@H](O)[C@H]1O)=C\C=C\C=C(C)\C=C\C=C(/C)C(=O)O[C@@H]1O[C@H](CO[C@@H]2O[C@H](CO)[C@@H](O)[C@H](O)[C@H]2O)[C@@H](O)[C@H](O)[C@H]1O` [Crocin] returned a CC50 at 48 h greater than 100 µM.

In the case of `Cc1cc2nc3c(=O)[nH]c(=O)nc-3n(C[C@H](O)[C@H](O)[C@H](O)COP(=O)(O)OP(=O)(O)OC[C@H]3O[C@@H](n4cnc5c(N)ncnc54)[C@H](O)[C@@H]3O)c2cc1C` [FAD], the CC50 in data set [6] was less than 50 µM.

For the molecule `COC(=O)N[C@H](C(=O)N1CCC[C@H]1C(=O)Nc1ccc([C@@H]2CC[C@@H](c3ccc(NC(=O)[C@@H]4CCCN4C(=O)[C@@H](NC(=O)OC)C(C)C)cc3)N2c2ccc(C(C)(C)C)cc2)cc1)C(C)C` [Ombitasvir], the CC50 at 48 h in data set [1] is greater than 100 µM.

Turning to `C[C@H]1O[C@H](O[C@H]2[C@H](O)[C@@H](O)[C@@H](O[C@H]3[C@H](O)[C@@H](O)C(O)O[C@@H]3CO)O[C@@H]2CO)[C@H](O)[C@@H](O)[C@@H]1N[C@H]1C=C(CO)[C@@H](O)[C@H](O)[C@H]1O` (stereo partly drawn) [Acarbose], the CC50 at 48 h in data set [1] (MDCK cells) was greater than 100 µM. Moreover, in data set [3], the “rate of weight loss in virus-infected mice” value is listed as “significantly slowed the rate of weight loss”.

In data set [1] (MDCK cells), `NC[C@@H]1O[C@H](O[C@H]2[C@@H](O)[C@H](O[C@@H]3[C@@H](O)[C@H](N)C[C@H](N)[C@H]3O[C@H]3O[C@H](CO)[C@@H](O)[C@H](O)[C@H]3N)O[C@@H]2CO)[C@H](N)[C@@H](O)[C@@H]1O` [Paromomycin, Paromomycin sulfate] displayed a CC50 at 48 h greater than 100 µM.

In data set [1] (MDCK cells), `C[C@@H]1O[C@@H](OC[C@H]2O[C@@H](Oc3c(-c4ccc(OCCO)c(OCCO)c4)oc4cc(OCCO)cc(O)c4c3=O)[C@H](O)[C@@H](O)[C@@H]2O)[C@H](O)[C@H](O)[C@H]1O` [Troxerutin] displayed a CC50 at 48 h of less than 50 µM.

Regarding `CN[C@@H]1[C@@H](O)[C@@H](O[C@@H]2[C@@H](O)[C@H](O[C@H]3O[C@H](CN)[C@@H](O)[C@H](O)[C@H]3O)[C@@H](N)C[C@H]2NC(=O)[C@@H](O)CN)OC[C@]1(C)O` [Isepamicin], the CC50 at 48 h in data set [1] (MDCK cells) is greater than 100 µM.
